This assay concerns mutant HIV-1 with I84V/L90M mutations. In kind it is cell-based.
Setting [1] is: fold difference in EC50 vs wild type, class symbols.

Like-named read-outs stand apart in the source and are kept apart here.

On to `COc1ccc(S(=O)(=O)N(CC(C)C)CC(O)C(Cc2ccc(OCP(=O)(NC(C)C(=O)OC(C)C)Oc3ccccc3)cc2)NC(=O)OC2COC3OCCC23)cc1` (centres unmarked) [drawing 608 R1=OPh R2=Ala-iPr], for which, under setting [1], the I84V/L90M fold change entry is on record as “− (≦3)”.

As for `CC(C)CN(C[C@@H](O)[C@H](Cc1ccc(OCP(=O)(Oc2ccccc2)Oc2ccccc2)cc1)NC(=O)OC1CCOC1)S(=O)(=O)c1ccc(N)cc1` (some centres unmarked) [NH2, phenol], the I84V/L90M fold change result (I84V/L90M mutant) is reported as “− (≦3)”. The same measure, in the same setting: the result for `CC(C)CN(CC(O)C(Cc1ccc(O)cc1)NC(=O)OC1COC2OCCC12)S(=O)(=O)c1cccc(N)c1` (centres unmarked) [OH, m-NH2] reads “− (≦3)”. On to `CCOP(=O)(CCC1=CCN(CC(NC(=O)OC2COC3OCCC23)C(O)CN(CC(C)C)S(=O)(=O)c2ccc(OC)cc2)CC1)OCC` (centres unmarked), for which the I84V/L90M fold change entry under setting [1] was “+ (>3 to ≦10)”. For the compound `CCCCOC(=O)C(C)OP(=O)(COc1ccc(CC(NC(=O)OC2COC3OCCC23)C(O)CN(CC(C)C)S(=O)(=O)c2cccc(N)c2)cc1)Oc1ccccc1` (centres unmarked), for the setting “I84V/L90M mutant”, the I84V/L90M fold change result is “− (≦3)”.

Regarding `COc1ccc(S(=O)(=O)N(CC(C)C)CC(O)C(Cc2ccc(OCP(=O)(NC(C)C(=O)OC(C)C)Oc3ccccc3)cc2)NC(=O)OC2COC3OCCC23)cc1` (centres unmarked) [drawing 608 R1=OPh R2=(D)Ala-iPr], under setting [1], the I84V/L90M fold change result was “− (≦3)”. Same read-out and setting: the result for `CCOC(=O)C(C)NP(=O)(COc1ccc(CC(NC(=O)OC2COC3OCCC23)C(O)CN(CC(C)C)S(=O)(=O)c2ccc(OC)cc2)cc1)OCc1ccccc1` (centres unmarked) [drawing 608 R1=OBn R2=Ala-Et] reads “− (≦3)”. The same measure, in the same setting: for `CCCCOC(=O)C(C)OP(=O)(COc1ccc(CC(NC(=O)OC2COC3OCCC23)C(O)CN(CC(C)C)S(=O)(=O)c2ccc(OC)cc2)cc1)Oc1ccccc1` (centres unmarked) [drawing 609 R1=OPh R2=Lac-Bu] the value was “− (≦3)”. Take `CC(C)CN(CC(O)C(Cc1ccc(OCP(=O)(OCc2ccccc2)OCc2ccccc2)cc1)NC(=O)OC1COC2OCCC12)S(=O)(=O)c1ccc(C#N)cc1` (centres unmarked): the I84V/L90M fold change result (I84V/L90M mutant) was “− (≦3)”. The same measure, in the same setting: for `CC(C)CN(CC(O)C(Cc1ccccc1)NC(=O)OC1COC2OCCC12)S(=O)(=O)c1ccc(O)cc1` (centres unmarked) the value was “− (≦3)”. In the case of `COc1ccc(S(=O)(=O)N(CC(C)C)CC(O)C(Cc2ccc(OCP(=O)(O)OC(C)C(=O)O)cc2)NC(=O)OC2COC3OCCC23)cc1` (centres unmarked) [drawing 609 R1=OH R2=Lac-OH], the I84V/L90M fold change result under setting [1] is “− (≦3)”. Same read-out and setting: the result for `CCOC(=O)C(NP(=O)(COc1ccc(CC(NC(=O)OC2COC3OCCC23)C(O)CN(CC(C)C)S(=O)(=O)c2ccc(OC)cc2)cc1)NC(C(=O)OCC)C(C)C)C(C)C` (centres unmarked) [drawing 606 R1=Val-Et R2=Val-Et] reads “− (≦3)”. For `Cc1cccc(C)c1OCC(=O)NC(Cc1ccc(OCP(=O)(O)O)cc1)C(O)CN(CC(C)C)S(=O)(=O)c1ccc(N)cc1` (centres unmarked), the I84V/L90M fold change result (I84V/L90M mutant) was “− (≦3)”. Regarding `CCOP(=O)(COc1ccc(CC(NC(=O)OC2COC3OCCC23)C(O)CN(CC(C)C)S(=O)(=O)c2ccc(OC)cc2)cc1)OCC` (centres unmarked) [drawing 602 R1=OEt R2=OEt], the I84V/L90M fold change result under setting [1] is given as “− (≦3)”.

In the case of `CCNc1ccc(S(=O)(=O)N(CC(C)C)CC(O)C(Cc2ccc(OCP(=O)(OCC)OCC)cc2)NC(=O)OC2COC3OCCC23)cc1` (centres unmarked), the I84V/L90M fold change result (I84V/L90M mutant) was “− (≦3)”. `COC(=O)N[C@H](C(=O)N[C@@H](Cc1ccccc1)[C@@H](O)CN(Cc1ccc(-c2ccccn2)cc1)NC(=O)[C@@H](NC(=O)OC)C(C)(C)C)C(C)(C)C` [Atazanavir, reference compound]: the I84V/L90M fold change result under setting [1] is “+++ (>30)”. Regarding `CC(C)CN(CC(O)C(Cc1ccccc1)NC(=O)OC1COC2OCCC12)S(=O)(=O)c1ccc(OCP(=O)(O)O)cc1` (centres unmarked), the I84V/L90M fold change entry (I84V/L90M mutant) is given as “− (≦3)”. With `CCOP(=O)(CN1CC=C(CC(NC(=O)OC2COC3OCCC23)C(O)CN(CC(C)C)S(=O)(=O)c2ccc(OC)cc2)CC1)OCC` (centres unmarked), under setting [1], the I84V/L90M fold change result is recorded as “+ (>3 to ≦10)”. The same measure, in the same setting: the result for `CCOP(=O)(Cc1ccc2c(c1)CCN(CC(NC(=O)OC1COC3OCCC13)C(O)CN(CC(C)C)S(=O)(=O)c1ccc(OC)cc1)C2)OCC` (centres unmarked) reads “+ (>3 to ≦10)”. In the case of `COc1ccc(S(=O)(=O)N(CC(C)C)CC(O)C(CC2=CCN(CCP(=O)(OCc3ccccc3)OCc3ccccc3)CC2)NC(=O)OC2COC3OCCC23)cc1` (centres unmarked), under setting [1], the I84V/L90M fold change result is “+ (>3 to ≦10)”. Same read-out and setting: for `CCNP(=O)(COc1ccc(CC(NC(=O)OC2COC3OCCC23)C(O)CN(CC(C)C)S(=O)(=O)c2ccc(OC)cc2)cc1)NCC` (centres unmarked) [drawing 606 R1=NHEt R2=NHEt] the value was “− (≦3)”. Regarding `COc1ccc(S(=O)(=O)N(CC(C)C)CC(O)C(Cc2ccc(OCc3ccccc3)cc2)NC(=O)OC2COC3OCCC23)cc1` (centres unmarked), the I84V/L90M fold change result (I84V/L90M mutant) is “− (≦3)”. Same read-out and setting: for `CCOP(=O)(COc1ccc(CC(NC(=O)OC2COC3OCCC23)C(O)CN(CC(C)C)S(=O)(=O)c2ccc([N+](=O)[O-])cc2)cc1)OCC` (centres unmarked) the value was “− (≦3)”. On the same count and under the same terms, for `COc1ccc(S(=O)(=O)N(CCN(C)C)CC(O)C(Cc2ccc(OCc3ccccc3)cc2)NC(=O)OC2COC3OCCC23)cc1` (centres unmarked) the value was “− (≦3)”.

In the case of `CC(C)CN(CC(O)C(Cc1ccc(OCP(=O)(OCc2ccccc2)OCc2ccccc2)cc1)NC(=O)OC1COC2OCCC12)S(=O)(=O)c1cccc(N)c1` (centres unmarked), the I84V/L90M fold change entry (I84V/L90M mutant) is on record as “− (≦3)”. On to `COc1ccc(S(=O)(=O)N(CC(C)C)CC(O)C(Cc2ccc(NCP(=O)(OCc3ccccc3)OCc3ccccc3)cc2)NC(=O)OC2COC3OCCC23)cc1` (centres unmarked), for which, under setting [1], the I84V/L90M fold change entry is listed as “− (≦3)”.

On to `COc1ccc(S(=O)(=O)N(CCN(C)C)CC(O)C(Cc2ccc(O)cc2)NC(=O)OC2COC3OCCC23)cc1` (centres unmarked), for which the I84V/L90M fold change result (I84V/L90M mutant) is recorded as “− (≦3)”. Take `CCOP(=O)(COc1ccc(CC(NC(=O)OC2COC3OCCC23)C(O)CN(CC(C)C)S(=O)(=O)c2ccc(N)cc2)cc1)OCC` (centres unmarked): the I84V/L90M fold change entry (I84V/L90M mutant) is recorded as “− (≦3)”. With `CCOP(=O)(Cc1ccc(NCC(NC(=O)OC2COC3OCCC23)C(O)CN(CC(C)C)S(=O)(=O)c2ccc(OC)cc2)cc1)OCC` (centres unmarked), under setting [1], the I84V/L90M fold change result was “+ (>3 to ≦10)”. Consider `CC(C)CN(CC(O)C(Cc1ccc(OCP(=O)(OCc2ccccc2)OCc2ccccc2)cc1)NC(=O)OC1COC2OCCC12)S(=O)(=O)c1ccccc1` (centres unmarked), for which, where the note is “I84V/L90M mutant”, the I84V/L90M fold change entry is given as “+ (>3 to ≦10)”. As for `COc1ccc(S(=O)(=O)N(CC(C)C)CC(O)C(Cc2ccc(OCP(=O)(OC(C)C)OC(C)C)cc2)NC(=O)OC2COC3OCCC23)cc1` (centres unmarked) [drawing 602 R1=OiPr R2=OiPr], the I84V/L90M fold change entry under setting [1] is listed as “− (≦3)”. The same measure, in the same setting: the result for `COc1ccc(S(=O)(=O)N(CC(C)C)CC(O)C(Cc2ccc(OCP(=O)(Oc3ccccc3)OC(C)C(=O)OC(C)C)cc2)NC(=O)OC2COC3OCCC23)cc1` (centres unmarked) [drawing 609 R1=OPh R2=Lac-iPr] reads “− (≦3)”. Still for that read-out and setting: the result for `COc1ccc(S(=O)(=O)N(CC(C)C)CC(O)C(Cc2ccc(OCP(=O)(O)O)cc2)NC(=O)OC2COC3OCCC23)cc1` (centres unmarked) [drawing 602 R1=OH R2=OH] reads “− (≦3)”. As to `CC(C)CN(CC(O)C(Cc1ccc(OCP(=O)(O)O)cc1)NC(=O)OC1COC2OCCC12)S(=O)(=O)c1ccc(N)cc1` (centres unmarked), the I84V/L90M fold change entry (I84V/L90M mutant) was “− (≦3)”.

Consider `CCOP(=O)(CON=Cc1ccc(CC(NC(=O)OC2COC3OCCC23)C(O)CN(CC(C)C)S(=O)(=O)c2ccc(OC)cc2)cc1)OCC` (centres unmarked) [drawing 615 R1=Et R2=Et], for which the I84V/L90M fold change result under setting [1] was “− (≦3)”. Same read-out and setting: for `COc1ccc(S(=O)(=O)N(CC(C)C)CC(O)C(Cc2ccc(OCP(=O)(OC(C)C(=O)OC(C)C)OC(C)C(=O)OC(C)C)cc2)NC(=O)OC2COC3OCCC23)cc1` (centres unmarked) [drawing 607 R1=Lac-iPr R2=Lac-iPr] the value was “− (≦3)”; for `CCCCOC(=O)CNP(=O)(COc1ccc(CC(NC(=O)OC2COC3OCCC23)C(O)CN(CC(C)C)S(=O)(=O)c2ccc(OC)cc2)cc1)Oc1ccccc1` (centres unmarked) [drawing 608 R1=OPh R2=Gly-Bu], “− (≦3)”; for `COc1ccc(S(=O)(=O)N(CC(C)C)CC(O)C(Cc2ccc(OCP(=O)(O)OC(C)C(=O)O)cc2)NC(=O)OC2COC3OCCC23)cc1` [drawing 609 R1=OH R2=(R)Lac-OH], “− (≦3)”. Same read-out and setting: the result for `CCOP(=O)(OCC)c1ccc(CC(NC(=O)OC2COC3OCCC23)C(O)CN(CC(C)C)S(=O)(=O)c2ccc(OC)cc2)cc1` (centres unmarked) [drawing 604 R1=OEt R2=OEt] reads “− (≦3)”; that for `COC(=O)C(C)NP(=O)(COc1ccc(CC(NC(=O)OC2COC3OCCC23)C(O)CN(CC(C)C)S(=O)(=O)c2ccc(OC)cc2)cc1)Oc1ccccc1` (centres unmarked) [drawing 608 R1=OPh R2=Ala-Me], “− (≦3)”.

With `CCOP(=O)(CNc1ccc(CC(NC(=O)OC2COC3OCCC23)C(O)CN(CC(C)C)S(=O)(=O)c2ccc(OC)cc2)cc1)OCC` (centres unmarked), the I84V/L90M fold change entry under setting [1] is given as “− (≦3)”. As for `CCOC(=O)C(C)OP(=O)(COc1ccc(CC(NC(=O)OC2COC3OCCC23)C(O)CN(CC(C)C)S(=O)(=O)c2ccc(OC)cc2)cc1)OC(C)C(=O)OCC` (centres unmarked) [drawing 607 R1=Lac-Et R2=Lac-Et], the I84V/L90M fold change entry under setting [1] was “− (≦3)”. For the compound `Cc1cccc(C)c1OCC(=O)NC(Cc1ccc(OCP(=O)(OCc2ccccc2)OCc2ccccc2)cc1)C(O)CN(CC(C)C)S(=O)(=O)c1ccc(N)cc1` (centres unmarked), the I84V/L90M fold change entry (I84V/L90M mutant) is recorded as “− (≦3)”.

With `CC(C)CN(CC(O)C(Cc1ccc(O)cc1)NC(=O)OC1COC2OCCC12)S(=O)(=O)c1ccc(N)cc1` (centres unmarked) [OH, p-NH2], under “I84V/L90M mutant”, the I84V/L90M fold change result is “− (≦3)”. On to `COc1ccc(S(=O)(=O)N(CC(C)C)CC(O)C(Cc2ccccc2)NC(=O)OC2COC3OCCC23)cc1O` (centres unmarked), for which the I84V/L90M fold change entry (I84V/L90M mutant) is listed as “− (≦3)”. Consider `COc1ccc(S(=O)(=O)N(CC(C)C)CC(O)C(Cc2ccc(OCP(=O)(OCc3ccccc3)OCc3ccccc3)cc2)NC(=O)OC2COC3OCCC23)cc1` (centres unmarked) [drawing 602 R1=OBn R2=OBn], for which the I84V/L90M fold change result under setting [1] is on record as “− (≦3)”. Consider `CC(C)CN(CC(O)C(Cc1ccc(OCP(=O)(O)O)cc1)NC(=O)OC1COC2OCCC12)S(=O)(=O)c1cccc(N)c1` (centres unmarked), for which, where the note is “I84V/L90M mutant”, the I84V/L90M fold change entry is “− (≦3)”. The same measure, in the same setting: for `CCOP(=O)(COc1ccc(CC(NC(=O)OC2COC3OCCC23)C(O)CN(CC(C)C)S(=O)(=O)c2cccc(N)c2)cc1)OCC` (centres unmarked) the value was “− (≦3)”; for `COc1ccc(S(=O)(=O)N(CC(C)C)CC(O)C(Cc2ccccc2)NC(=O)OC2COC3OCCC23)cc1OCP(=O)(O)O` (centres unmarked), “− (≦3)”; for `CCOP(=O)(COc1cc(S(=O)(=O)N(CC(C)C)CC(O)C(Cc2ccccc2)NC(=O)OC2COC3OCCC23)ccc1O)OCC` (centres unmarked), “− (≦3)”.

Values taken from patent US20070190523A1 (priority 2002, published 2007).
